Test results reported in US6492339B1, “Compositions comprising D-chiro inositol and sulfonylureas and methods of treatment thereof” (Insmed, Incorporated, priority 2001, dated 2002).
“Also recorded” adds a separate entry of the source.

Columns and labels:
[1] = test system: obese patients with type 2 diabetes mellitus; assay: Randomized, placebo-controlled, double-blind clinical trial of D-chiro-inositol in combination with a sulfonylurea (fasting biomarkers, HbA1c, lipids); format: in vivo, human; conditions: for difference to placebo in change of mean HbA1c level (%): baseline to endpoint
Method: The objective of this study was to assess the efficacy and safety of D-chiro-inositol when administered as a single oral dose of 1200 mg/day compared to placebo, each in combination with sulfonylureas, for 3 months. Patients were required to have been on sulfonylureas for 3 months prior to study entry without reaching their target dose or with a suboptimal response.
This multicenter, double-blind, parallel-group, placebo-controlled, randomized, fixed-dose clinical study was designed to evaluate 1200 mg/day D-chiro-inositol versus placebo in 270 obese patients with type 2 diabetes mellitus who had been receiving sulfonylureas for at least 3 months without reaching their target or with suboptimal response.
(§1) The study involved 5 scheduled visits. The first visit was the screening visit, followed by a baseline visit up to 2 weeks later. Patients were randomized at the baseline visit, half to 1200 mg/day D-chiro-inositol and half to placebo. and subsequently began 13 weeks of treatment with blinded study medication. There were 3 visits for safety and efficacy assessments, at 4, 8, and 13 weeks after beginning treatment. The 13week visit was the final visit. Patients arrived at the investigational site in a fasted state for all visits. Assessments were to be done at the same time of day at each visit by the same responsible personnel. Medication was taken once a day at the same time of morning, except on visit days, on which the dose was delayed until just after fasting blood samples had been collected.
Patients receiving D-chiro-inositol received four 300 mg capsules once daily for a total daily dose of 1200 mg; placebo patients took 4 placebo capsules once daily. Doses were taken orally, generally in the mornings. Patients were instructed to take their dose in the morning at the same time each day, except on visit days. On visit days, dosing was to be done at the clinic. No instructions were given regarding when to take medication in relation to meals on non-visit days.
(§2) Biomarkers: A meal tolerance test (MTT) was performed at baseline (Visit 2) and the final visit (Visit 5). In addition, blood was drawn at every visit for assessment of fasting glucose and insulin, HbA1c, C-peptide, fructosamine, FFA, triglycerides, total cholesterol, HDL, VLDL, LDL, and Apo-B levels.
Primary Efficacy Variable(s) and Analyses. The primary analysis was based on the change from baseline to endpoint in HbA1c level using the modified ITT and evaluable study populations. The analysis was done using an analysis of covariance (ANCOVA) model with treatment group and the baseline HbA1c value as predictors.
Secondary Efficacy Variable(s) and Analyses. Since all secondary efficacy parameters were continuous, they were analyzed in the same manner as described above for the primary efficacy parameter, with treatment group and baseline values for the relevant parameter used as predictors.

[2] = test system: obese patients with type 2 diabetes mellitus; assay: Meal tolerance test (MTT) at baseline and final visit of the clinical trial; format: in vivo, human
Method: Changes in area-under-the-curve (AUC) and 120-minute insulin and glucose levels during the meal tolerance test (MTT).
as §1, §2
AUC (and 120-minute) insulin and glucose levels during the MTT;.
FIGS. 1A, 1B and 2 illustrate the observation that D-chiro-inositol (DCI) prolongs pancreatic production of insulin in patients receiving sulfonylurea compounds. […] At baseline, a time when the subjects had been poorly managed on SU compounds alone, both the DCI group and the SU group responded similarly in their ability to produce insulin in response to the meal challenge. […] Without wishing to be bound by theory, the inventors contemplate that this progression is mediated by pancreatic failure and thus reduced insulin secretion. Therefore the amelioration of this effect by administration of DCI benefits the subject by the aforementioned medical improvements, but also will prevent the progression of diabetes by preventing pancreatic failure and/or decreased insulin production.

type 2 diabetic patients = assay: Subgroup analysis of lipid lowering drug/D-chiro-inositol effects on LDL cholesterol; format: in vivo, human; conditions: type 2 diabetic patients on sulfonylurea, with or without lipid lowering medications
Method: Due to the observation of lipid lowering effects seen in the DCI group, the clinical trial described in EXAMPLE 1 was further analyzed for synergistic interactions between D-chiro-inositol and lipid lowering medications. Certain patients within the trial were treated according to standard of care with HMC-CoA inhibitors (LIPITOR®, LESCOL®, ZOCOR®, MEVACOR®, PRAVACHOL®), gemfibrozil, or a combination of HMC-CoA and gemfibrozil. No inclusion or exclusion criteria were established for the efficacy of the lipid lowering drug efficacy in the patient population. As stated supra, these patients were being sub optimally treated with a sulfonylurea prior to beginning the clinical trial.

[3] = test system: streptozotocin-treated rats, obese Zucker rats, or normal rats given a glucose load; conditions: obese Zucker or glucose-loaded normal rats; cited from earlier work
[4] = test system: obese insulin-resistant rhesus monkeys; conditions: oral or intravenous route; cited from earlier work
diabetic population = conditions: in combination with sulfonylurea or insulin; cited from earlier work
[5] = evaluable patients with fasting plasma glucose ≦180 mg/dL, 1200 mg/day oral with sulfonylureas
[6] = evaluable population, 1200 mg/day oral with sulfonylureas, 13 weeks
[7] = patients with fasting plasma glucose ≦180 mg/dL, 1200 mg/day oral with sulfonylureas

SMILES | Mean change (in %) in HbA1c levels from baseline to endpoint ([1]; all subjects using LOCF at endpoint, 1200 mg/day oral with sulfonylureas, 13 weeks) | decrease in mean HbA1c level (%) from baseline to endpoint ([1]; evaluable patients with FPG≦180 mg/dL, value printed as size of the decrease) | Apo-B, mean change [1, 5] | difference to placebo in change of mean HbA1c level (%) ([1]; evaluable population) | FFA, mean change at endpoint [1, 6] | decrease in mean HbA1c levels (%) from baseline to endpoint ([1]; evaluable population, value printed as size of the decrease) | difference to placebo in change of mean HbA1c level (%) ([1]; patients with FPG≦180 mg/dL) | Mean change (in %) in HbA1c levels to endpoint ([1]; patients with fasting plasma glucose ≦180 mg/dL, LOCF at endpoint, 1200 mg/day oral with sulfonylureas) | Mean change (in %) in HbA1c levels to Week 4 [1, 7] | Mean change (in %) in HbA1c levels to Week 8 [1, 7] | Change in insulin AUC from baseline to final (FIG. 2) ([2]; DCI+SU, scatter diagram of individual subjects, median, listed as DCI) | insulin response after a meal tolerance test, baseline versus final (FIGS. 1A, 1B) ([2]; DCI+SU, subjects with fasting blood glucose ≤180 mg/dl, three month timepoint, listed as DCI) | AUC insulin, mean change [2, 5] | 120-min. insulin, mean change at endpoint [2, 6] | AUC insulin, mean change at endpoint [2, 6] | effect on LDL cholesterol (FIG. 3) (type 2 diabetic patients) | glycemic control [3] | disappearance rate of plasma glucose and insulin [4] | rate of mild to moderate hypoglycemia (diabetic population)
OC1C(O)C(O)C(O)C(O)C1O [D-chiro-inositol] | −0.16% | 0.53% | -4.00 mg/dL | 0.36% | −0.07 mEq/L | 0.16% | 0.80% | −0.53% | −0.47% | −0.57% | no significant negative scatter; also recorded: slightly increased the insulin AUC | maintained this response after the 13 week course of treatment; also recorded: maintains a constant insulin response over the testing period | 1070.8 μU/mL · hr | 3.50 μU/mL | 484.4 μU/mL · hr | significantly reduced the increase of LDL cholesterol | significantly improved glycemic control | significantly increased the disappearance rate of both plasma glucose and insulin | 
CCc1ccc(CCOc2ccc(CC3SC(=O)NC3=O)cc2)nc1 (stereo not shown) [pioglitazone] |  |  |  |  |  |  |  |  |  |  |  |  |  |  |  |  |  |  | 1-2%
